Experimental data reported in patent US8945862B2, “Triple-fusion constructs and methods of monitoring human embryonic stem cells” (The Board of Trustees of the Leland Stanford Junior …, priority 2007, dated 2015).

Test system: H9^DF hESCs
Experiment: Bioluminescent imaging of transplanted hESC survival under immunosuppressive drug treatment
Type: in vivo, BALB/c mice
Conditions: for BLI signal by post-transplant day 10: single drug treatment groups
Protocol: H1, H9 and H9DF hESCs were initially maintained on top of murine embryonic fibroblasts feeder (MEF) layers as detailed in SI Methods. To prevent contamination of the transplanted hESC population with MEF, hESC colonies were separated from MEF by incubation with dispase (Invitrogen) and subcultured on feeder-free matrigel (hESC qualified, BD Biosciences) coated 6-well plates in mTeSR™ 1 maintenance medium (Stem Cell Technologies) for 2 to 5 passages. MHC expression on hESCs was evaluated by flow cytometry as detailed in SI Methods. Shortly prior to transplantation, hESCs were trypsinated, and resuspended in sterile PBS at 1×10^6 cells per 20 μl. hESC transplantation was performed by direct injection into gastrocnemius muscles of recipient mice (using a 29.5 gauge insulin syringe.
BLI was performed using the Xenogen In Vivo Imaging System as previously described (38). Briefly, mice were anesthetized with isoflurane and D-luciferin was administered intraperitoneally at a dose of 375 mg/kg body weight. At the time of imaging, animals were placed in a light-tight chamber, and photons emitted from luciferase expressing hESCs transplanted into the animals were collected with integration times of 5 sec-5 min, depending on the intensity of the bioluminescence emission. The same mice were scanned repetitively as per the study design. BLI signal was quantified in units of photons per second (Total flux) and presented as Log[photons/sec].

Row | Compound | BLI signal by post-transplant day 10 | improvement of hESC survival by addition of MMF (over single TAC and/or SIR treatment) | BLI signal at day 7 (monotherapy, 1×10^6 H9^DF hESCs in gastrocnemius muscle, NT 4.98±0.04, P<0.05)
1 | C=CC[C@@H]1/C=C(\C)C[C@H](C)C[C@H](OC)[C@H]2O[C@@](O)(C(=O)C(=O)N3CCCC[C@H]3C(=O)O[C@H](/C(C)=C/[C@@H]3CC[C@@H](O)[C@H](OC)C3)[C@H](C)[C@@H](O)CC1=O)[C@H](C)C[C@@H]2OC [TAC, Tacrolimus] | decreased to background levels |  | 
2 | COc1c(C)c2c(c(O)c1C/C=C(\C)CCC(=O)OCCN1CCOCC1)C(=O)OC2 [MMF, mycophenolate mofetil] | decreased to background levels | did not result in significant improvement | 
3 | CO[C@H]1C[C@@H]2CC[C@@H](C)[C@@](O)(O2)C(=O)C(=O)N2CCCC[C@H]2C(=O)O[C@H]([C@H](C)C[C@@H]2CC[C@@H](O)[C@H](OC)C2)CC(=O)[C@H](C)/C=C(\C)[C@@H](O)[C@@H](OC)C(=O)[C@H](C)C[C@H](C)/C=C/C=C/C=C/1C [SIR, sirolimus] |  |  | 6.4±0.29 Log^[photons/sec]
